Where “and” joins values, the source holds several entries; their conditions need not be identical. Identical values can stand only once. Toxic doses and inconclusive results are not listed.
System: P388 leukemia ip, CD2F1 mice, survival T/C
Experiment: NCI In Vivo Anticancer Drug Screen. Data for tumor model P388 Leukemia (intraperitoneal) in CD2F1 (CDF1) mice
Details: endpoint: median survival time, higher = longer survival
In short: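 Mice carrying the transplanted tumor received test compound or vehicle. Survival was recorded in each group, and the value is the treated-group measurement divided by that of the vehicle-treated control group.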

[1] = dose: 25.0 mg/kg/injection, schedule: Q01DX009 (ip), vehicle: saline with Tween-80
[2] = dose: 100.0 mg/kg/injection, schedule: Q01DX009 (ip), vehicle: saline with Tween-80
[3] = dose: 200.0 mg/kg/injection, schedule: Q01DX009 (ip), vehicle: saline with Tween-80
[4] = dose: 50.0 mg/kg/injection, schedule: Q04DX002 (ip), vehicle: Klucel (hydroxypropylcellulose) (HPC)
[5] = dose: 100.0 mg/kg/injection, schedule: Q04DX003 (ip), vehicle: saline with Tween-80
[6] = dose: 50.0 mg/kg/injection, schedule: Q01DX009 (ip), vehicle: saline with Tween-80
[7] = dose: 50.0 mg/kg/injection, schedule: Q01DX009 (ip), vehicle: Klucel (hydroxypropylcellulose) (HPC)

SMILES: C=CS(=O)(=O)OCCCl
- T/C (dose: 6.25 mg/kg/injection, schedule: Q01DX009 (ip), vehicle: saline with Tween-80): 108 % of control and 109 % of control and 111 % of control
- T/C (dose: 18.75 mg/kg/injection, schedule: Q01DX009 (ip), vehicle: saline with Tween-80): 117 % of control

SMILES: CSC(C(=O)c1ccccc1)c1ccccc1 (stereo not given)
- T/C (dose: 25.0 mg/kg/injection, schedule: Q01DX009 (ip), vehicle: saline + alcohol): 87 % of control
- T/C (dose: 50.0 mg/kg/injection, schedule: Q01DX009 (ip), vehicle: saline + alcohol): 96 % of control
- T/C (dose: 100.0 mg/kg/injection, schedule: Q01DX009 (ip), vehicle: saline + alcohol): 112 % of control

SMILES: CCOC(=O)/C=C1/Nc2ccc([N+](=O)[O-])cc2NC1=O (tested in a mixture with another compound)
- T/C (dose: 50.0 mg/kg/injection, schedule: Q01DX009 (ip), vehicle: distilled water + Tween-80 + alcohol): 86 % of control
- T/C (dose: 100.0 mg/kg/injection, schedule: Q01DX009 (ip), vehicle: distilled water + Tween-80 + alcohol): 94 % of control
- T/C (dose: 200.0 mg/kg/injection, schedule: Q01DX009 (ip), vehicle: distilled water + Tween-80 + alcohol): 103 % of control

SMILES: CCn1c2ccc(N)cc2c2c(N)c(-n3cccc3)ccc21
- T/C (dose: 50.0 mg/kg/injection, schedule: Q01DX005 (ip), vehicle: saline with Tween-80): 100 % of control
- T/C (dose: 100.0 mg/kg/injection, schedule: Q01DX005 (ip), vehicle: saline with Tween-80): 100 % of control
- T/C (dose: 200.0 mg/kg/injection, schedule: Q01DX005 (ip), vehicle: saline with Tween-80): 100 % of control

SMILES: Nc1ccccc1N
- T/C [1]: 95 % of control
- T/C [2]: 120 % of control
- T/C (dose: 100.0 mg/kg/injection, schedule: Q04DX003 (ip), vehicle: saline sonified): 100 % of control
- T/C [3]: 185 % of control

SMILES: C/C1=C\C(=O)OCC23CC(O)C4(C)OC4C2OC2CC(OC(=O)/C=C/C=C/C(C(C)O)OCC1O)C3(C)C21CO1 (stereo not given)
- T/C (dose: 1.25 mg/kg/injection, schedule: Q01DX005 (ip), vehicle: saline + alcohol): 120 % of control
- T/C (dose: 2.5 mg/kg/injection, schedule: Q01DX005 (ip), vehicle: saline + alcohol): 120 % of control
- T/C (dose: 5.0 mg/kg/injection, schedule: Q01DX005 (ip), vehicle: saline + alcohol): 155 % of control
- T/C (dose: 10.0 mg/kg/injection, schedule: Q01DX005 (ip), vehicle: saline + alcohol): 172 % of control

SMILES: CCC(c1ccc(OC)cc1)C(NCC(=O)N/N=C1/C=C2CC[C@H]3[C@@H]4CC[C@H](O)[C@@]4(C)CC[C@@H]3[C@@]2(C)CC1)c1ccc(OC)cc1 (stereo not given in full)
- T/C (dose: 100.0 mg/kg/injection, schedule: Q01DX001 (ip), vehicle: saline with Tween-80): 100 % of control
- T/C (dose: 200.0 mg/kg/injection, schedule: Q01DX001 (ip), vehicle: saline with Tween-80): 110 % of control
- T/C (dose: 400.0 mg/kg/injection, schedule: Q01DX001 (ip), vehicle: saline with Tween-80): 107 % of control

SMILES: COC(=O)/C=C1/Nc2c(n(C)c(=O)n(C)c2=O)NC1=O
- T/C (dose: 100.0 mg/kg/injection, schedule: Q04DX003 (ip), vehicle: saline): 107 % of control
- T/C (dose: 200.0 mg/kg/injection, schedule: Q04DX003 (ip), vehicle: saline): 94 % of control
- T/C (dose: 400.0 mg/kg/injection, schedule: Q04DX003 (ip), vehicle: saline): 99 % of control

SMILES: C1=CN2C3=NCCN3C3=NCCN3C2c2ccccc21 (stereo not given)
- T/C (dose: 12.5 mg/kg/injection, schedule: Q04DX002 (ip), vehicle: Klucel (hydroxypropylcellulose) (HPC)): 102 % of control
- T/C (dose: 25.0 mg/kg/injection, schedule: Q04DX002 (ip), vehicle: Klucel (hydroxypropylcellulose) (HPC)): 99 % of control
- T/C [4]: 102 % of control

SMILES: O=C(O)c1cc(Br)c2ccccc2c1O
- T/C (dose: 25.0 mg/kg/injection, schedule: Q04DX003 (ip), vehicle: saline with Tween-80): 100 % of control
- T/C (dose: 50.0 mg/kg/injection, schedule: Q04DX003 (ip), vehicle: saline with Tween-80): 100 % of control
- T/C [5]: 100 % of control

SMILES: CC(=O)c1ccc(N/N=[N+](/C)[O-])cc1
- T/C (dose: 60.0 mg/kg/injection, schedule: Q01DX005 (ip), vehicle: saline with Tween-80): 99 % of control
- T/C (dose: 120.0 mg/kg/injection, schedule: Q01DX005 (ip), vehicle: saline with Tween-80): 101 % of control
- T/C (dose: 240.0 mg/kg/injection, schedule: Q01DX005 (ip), vehicle: saline with Tween-80): 99 % of control

SMILES: [O-]/[N+](=C\c1c(Cl)cccc1Cl)CC1(O)CCCCC1
- T/C [6]: 96 % of control
- T/C [2]: 90 % of control
- T/C [3]: 99 % of control

SMILES: O=C(O)/C=C/c1ccc([N+](=O)[O-])o1
- T/C (dose: 25.0 mg/kg/injection, schedule: Q01DX009 (ip), vehicle: Klucel (hydroxypropylcellulose) (HPC)): 107 % of control and 117 % of control
- T/C [7]: 120 % of control

SMILES: COc1cc(OC2OC(CO)C(O)C(O)C2O)ccc1/C=C\C(=O)c1ccc(OC2OC(CO)C(O)C(O)C2O)cc1 (stereo not given)
- T/C (dose: 100.0 mg/kg/injection, schedule: Q04DX002 (ip), vehicle: saline with Tween-80): 91 % of control
- T/C (dose: 200.0 mg/kg/injection, schedule: Q04DX002 (ip), vehicle: saline with Tween-80): 96 % of control
- T/C (dose: 400.0 mg/kg/injection, schedule: Q04DX002 (ip), vehicle: saline with Tween-80): 96 % of control

SMILES: CC1(C)C=Cc2cc(O)ccc2O1
- T/C [1]: 99 % of control
- T/C [6]: 90 % of control
- T/C [2]: 88 % of control
- T/C [3]: 86 % of control

SMILES: CC(C)=CC(=O)OC(=O)C=C(C)C
- T/C (dose: 100.0 mg/kg/injection, schedule: Q04DX003 (ip), vehicle: other): 100 % of control
- T/C (dose: 200.0 mg/kg/injection, schedule: Q04DX003 (ip), vehicle: other): 100 % of control
- T/C (dose: 400.0 mg/kg/injection, schedule: Q04DX003 (ip), vehicle: other): 100 % of control

SMILES: Cc1cc2c(=O)[nH]cnc2n1C1C(O)CCCC1O (stereo not given)
- T/C (dose: 50.0 mg/kg/injection, schedule: Q01DX005 (ip), vehicle: Klucel (hydroxypropylcellulose) (HPC)): 106 % of control
- T/C (dose: 100.0 mg/kg/injection, schedule: Q01DX005 (ip), vehicle: Klucel (hydroxypropylcellulose) (HPC)): 104 % of control
- T/C (dose: 200.0 mg/kg/injection, schedule: Q01DX005 (ip), vehicle: Klucel (hydroxypropylcellulose) (HPC)): 107 % of control

SMILES: COC(=O)C12OCC34C(OC(=O)C(OC(=O)C=C(C)C)C13)C(OC(C)=O)C1C(C)=CC(=O)CC1(C)C4C(O)C2O (stereo not given) (tested in a mixture with another compound)
- T/C (dose: 13.0 micrograms/kg/injection, schedule: Q01DX009 (ip), vehicle: saline + alcohol): 96 % of control
- T/C (dose: 25.0 micrograms/kg/injection, schedule: Q01DX009 (ip), vehicle: saline + alcohol): 97 % of control
- T/C (dose: 50.0 micrograms/kg/injection, schedule: Q01DX009 (ip), vehicle: saline + alcohol): 100 % of control
- T/C (dose: 100.0 micrograms/kg/injection, schedule: Q01DX009 (ip), vehicle: saline + alcohol): 101 % of control
- T/C (dose: 190.0 micrograms/kg/injection, schedule: Q01DX009 (ip), vehicle: saline + alcohol): 102 % of control
- T/C (dose: 380.0 micrograms/kg/injection, schedule: Q01DX009 (ip), vehicle: saline + alcohol): 102 % of control
- T/C (dose: 750.0 micrograms/kg/injection, schedule: Q01DX009 (ip), vehicle: saline + alcohol): 106 % of control

SMILES: O=C(CSc1nc(-c2ccccc2)c(-c2ccccc2)o1)N1CCCCC1
- T/C (dose: 50.0 mg/kg/injection, schedule: Q01DX009 (ip), vehicle: saline): 93 % of control
- T/C (dose: 100.0 mg/kg/injection, schedule: Q01DX009 (ip), vehicle: saline): 110 % of control
- T/C (dose: 200.0 mg/kg/injection, schedule: Q01DX009 (ip), vehicle: saline): 110 % of control

SMILES: O=S(=O)(Nc1cc2c3ccccc3ccc2c2ccccc12)c1ccccc1
- T/C [7]: 96 % of control
- T/C (dose: 100.0 mg/kg/injection, schedule: Q01DX009 (ip), vehicle: Klucel (hydroxypropylcellulose) (HPC)): 105 % of control
- T/C (dose: 200.0 mg/kg/injection, schedule: Q01DX009 (ip), vehicle: Klucel (hydroxypropylcellulose) (HPC)): 100 % of control

SMILES: CC1=CS(=O)c2ccccc2N1C (stereo not given)
- T/C [4]: 97 % of control
- T/C (dose: 100.0 mg/kg/injection, schedule: Q04DX002 (ip), vehicle: Klucel (hydroxypropylcellulose) (HPC)): 100 % of control
- T/C (dose: 100.0 mg/kg/injection, schedule: Q04DX002 (ip), vehicle: suspension in saline): 109 % of control
- T/C (dose: 200.0 mg/kg/injection, schedule: Q04DX002 (ip), vehicle: Klucel (hydroxypropylcellulose) (HPC)): 101 % of control
- T/C (dose: 200.0 mg/kg/injection, schedule: Q04DX002 (ip), vehicle: suspension in saline): 124 % of control
- T/C (dose: 400.0 mg/kg/injection, schedule: Q04DX002 (ip), vehicle: Klucel (hydroxypropylcellulose) (HPC)): 108 % of control
- T/C (dose: 400.0 mg/kg/injection, schedule: Q04DX002 (ip), vehicle: suspension in saline): 117 % of control

SMILES: CCCOn1nnc2ccccc21
- T/C [5]: 99 % of control
- T/C (dose: 200.0 mg/kg/injection, schedule: Q04DX003 (ip), vehicle: saline with Tween-80): 102 % of control
- T/C (dose: 400.0 mg/kg/injection, schedule: Q04DX003 (ip), vehicle: saline with Tween-80): 107 % of control
